Patent US5326882A, “Chemiluminescent 3-(substituted Adamant-2'-Ylidene) 1,2-dioxetanes” (Tropix, Inc., priority 1992, dated 1994)

Experiments:
[1] = system: alkaline phosphatase ("AP"); details: cited from earlier work
[2] = target: T1, avidin-alkaline phosphatase conjugate (Bos taurus, UniProt P19111); experiment: Dot blot of biotinylated pBr 322 35-mer on nylon membrane, instant film (Example XIV); details: 0.25 mM, pH 10, nylon membrane, FIG. 11
T1 construct: purchased Sigma, Inc., St. Louis, Mo
Protocol: A strip of neutral BIODYNE A nylon membrane (Pall Corporation, Glen Cove, N.Y.) was dotted twice (side-by-side) with the following concentrations of biotinylated pBr 322 35-mer oligonucleotide probe (Synthetic Genetics, San Diego, Calif.):
Next, the membrane was blocked in 0.2% casein/0.1% Tween 20 detergent in aqueous phosphate buffered saline solution (PBS) for 1 hour, following which 1/5000 diluted avidin-alkaline phosphatase conjugate (Sigma, Inc., St. Louis, Mo.) in 0.2% casein in PBS was added. The membrane was then incubated for 30 minutes, washed twice (for 5 minutes each time) in 0.2% casein/0.1% Tween 20 detergent in PBS, washed four times (for 5 minutes each time) in 0.3% Tween 20 detergent in PBS, and twice (for 5 minutes each time) in aqueous 0.1M diethanolamine containing 1 mM magnesium chloride, pH 10.0.
The membrane was then cut up the middle to give two strips, each bearing one set of dots. One of the strips was incubated for 5 minutes in aqueous AMPPD solution (0.25 mM in 0.1M diethanolamine containing 1 mM magnesium chloride, pH 10), the other for 5 minutes in the corresponding chloroadamant-2'-ylidene compound (0.25 mM in the same buffer). The two strips were then placed in camera luminometers and exposed on Polaroid Type 612 instant black and white film.

T1 sequence (P19111 20-506 limits assumed): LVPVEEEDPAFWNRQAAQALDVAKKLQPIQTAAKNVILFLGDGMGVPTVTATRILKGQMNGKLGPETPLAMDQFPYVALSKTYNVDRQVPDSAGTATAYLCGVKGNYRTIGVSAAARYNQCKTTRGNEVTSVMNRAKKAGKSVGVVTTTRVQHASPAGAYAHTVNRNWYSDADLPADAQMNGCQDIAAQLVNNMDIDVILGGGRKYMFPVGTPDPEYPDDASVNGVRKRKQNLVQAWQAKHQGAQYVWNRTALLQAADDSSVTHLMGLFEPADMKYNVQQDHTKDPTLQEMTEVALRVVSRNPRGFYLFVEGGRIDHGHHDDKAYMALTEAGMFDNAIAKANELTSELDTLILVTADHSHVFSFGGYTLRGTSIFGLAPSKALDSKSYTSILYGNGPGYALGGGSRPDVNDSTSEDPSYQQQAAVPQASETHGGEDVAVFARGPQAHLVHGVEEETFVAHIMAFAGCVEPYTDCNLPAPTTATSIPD
T1 sequence (P02701 25-152 partner): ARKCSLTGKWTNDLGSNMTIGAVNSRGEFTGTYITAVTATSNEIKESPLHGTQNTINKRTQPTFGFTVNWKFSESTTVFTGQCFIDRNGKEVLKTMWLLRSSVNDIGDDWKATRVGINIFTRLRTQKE

| SMILES | moles whose phosphoryloxy group is cleaved by a single mole of alkaline phosphatase per second [1] | chemiluminescence intensity as compared to AMPPD [2] |
| --- | --- | --- |
| COC1(c2cccc(OP(=O)(O)O)c2)OOC12C1CC3CC(C1)CC2C3 (centres unmarked) [AMPPD, 3-(4-methoxyspiro[1,2-dioxetane-3,2'-triyclo[3.3.1.1^3,7]decan]-4-yl)phenyl phosphate, reference compound] | 1,000-5,000 moles per second | – |
| COC1(c2cccc(OP(=O)(O)O)c2)OOC12C1CC3CC2CC(Cl)(C3)C1 (centres unmarked) [Cl-AMPPD, disodium 3-(4-methoxyspiro-[1,2-dioxetane-3,2'-(5'-chloro)tricyclo[3.3.1.1^3,7]decan]-4-yl) phenyl phosphate] | – | improved chemiluminescence intensity |
